Values after ≈ are worked out from the molar mass of the structure shown. Active and inactive are the calls of the source. The calls are words filed in the database; no cut-off is given here.
Columns and labels:
PC-3 = assay: Cytotoxicity against ERbeta positive human PC3 cells; format: functional, cell-based
A498 = assay: Cytotoxicity against human A498 cells; format: functional, cell-based
MCF7 [1] = assay: Cytotoxicity against human MCF7 cells; format: functional, cell-based
WiDr = assay: Cytotoxicity against human WIDR cells; format: functional, cell-based
[2] = Cytotoxicity against human IGROV cells; format: functional, cell-based
MDA-MB-231 = assay: Cytotoxicity against ERalpha negative human MDA-MB-231 cells; format: functional, cell-based
MCF7 [3] = assay: Cytotoxicity against ERalpha positive human MCF7 cells; format: functional, cell-based
EVSA-T = assay: Cytotoxicity against human EVSA-T cells; format: functional, cell-based
[4] = Cytotoxicity against human H226 cells; format: functional, cell-based; conditions: NCI-H226
[5] = tested on: M19 melanoma cell line (human); assay: Cytotoxicity against human M19 melanoma cells
LoVo [6] = assay: Ratio of IC50 of drug for human LoVo cells to IC50 of taxol for human LoVo cells; format: functional
LoVo [7] = assay: Cytotoxicity against human LoVo cells in presence of beta-glucuronidase; format: functional, cell-based
[8] = Half life in DTT buffer assessed as taxol release; format: ADME
OVCAR-3 [9] = assay: Cytotoxicity against human OVCAR-3 cells in presence of beta-glucuronidase; format: functional, cell-based
OVCAR-3 [10] = assay: Cytotoxicity against human OVCAR-3 cells; format: functional, cell-based
A2780 = assay: Cytotoxicity against ERbeta negative human A2780 cells; format: functional, cell-based
[11] = Aqueous solubility of the compound; format: physicochemical; conditions: aqueous solution

Structure (SMILES) | IC50 (PC-3) [nM] | IC50 (A498) [µg/mL] | IC50 (MCF7 [1]) [µg/mL] | IC50 (WiDr) [µg/mL] | IC50 [2] [µg/mL] | IC50 (MDA-MB-231) [nM] | IC50 (MCF7 [3]) [nM] | IC50 (EVSA-T) [µg/mL] | IC50 [4] [µg/mL] | IC50 [5] [µg/mL] | further results
CC(=O)O[C@H]1C(=O)[C@@]2(C)[C@H]([C@H](OC(=O)c3ccccc3)[C@]3(O)C[C@H](OC(=O)[C@H](OC(=O)N(C)CCNC(=O)[C@H](CCCCN)NC(=O)[C@H](Cc4ccccc4)NC(=O)[C@H](N)C(C)C)[C@@H](NC(=O)c4ccccc4)c4ccccc4)C(C)=C1C3(C)C)[C@]1(OC(C)=O)CO[C@@H]1C[C@@H]2O.Cl | 77 | > 0.063 | > 0.063 | 0.047 | 0.045 | 4.5 | 4.9 | > 0.063 | 0.048 | 0.047 | –
Cn1c(=O)oc2ccc([N+](=O)[O-])cc21 | – | – | – | – | – | – | – | – | – | – | Ratio IC50 (LoVo [6]): 3000; Activity (LoVo [7]): inactive
CC(=O)O[C@H]1C(=O)[C@@]2(C)[C@H]([C@H](OC(=O)c3ccccc3)[C@]3(O)C[C@H](OC(=O)[C@H](OC(=O)N(C)c4cc([N+](=O)[O-])ccc4O[C@@H]4O[C@H](C(=O)O)[C@@H](O)[C@H](O)[C@H]4O)[C@@H](NC(=O)c4ccccc4)c4ccccc4)C(C)=C1C3(C)C)[C@]1(OC(C)=O)CO[C@@H]1C[C@@H]2O | – | – | – | – | – | – | – | – | – | – | Ratio IC50 (LoVo [6]): 722; IC50 (LoVo [7]): 100 nM
CC(=O)O[C@H]1C(=O)[C@@]2(C)[C@H]([C@H](OC(=O)c3ccccc3)[C@]3(O)C[C@H](OC(=O)[C@H](OC(=O)OC/C=C/c4ccc([N+](=O)[O-])cc4)[C@@H](NC(=O)c4ccccc4)c4ccccc4)C(C)=C1C3(C)C)[C@]1(OC(C)=O)CO[C@@H]1C[C@@H]2O | – | 0.187 (≈ 0.177 µM) | 0.186 (≈ 0.176 µM) | 0.308 (≈ 0.291 µM) | 0.62 (≈ 0.585 µM) | – | – | 0.221 (≈ 0.209 µM) | 0.187 (≈ 0.177 µM) | 0.384 (≈ 0.363 µM) | –
CC(=O)O[C@H]1C(=O)[C@@]2(C)[C@H]([C@H](OC(=O)c3ccccc3)[C@]3(O)C[C@H](OC(=O)[C@H](OC(=O)C(C)(C)CCSSCC(NC(=O)CCC(N)C(=O)O)C(=O)NCC(=O)O)[C@@H](NC(=O)c4ccccc4)c4ccccc4)C(C)=C1C3(C)C)[C@]1(OC(C)=O)CO[C@@H]1C[C@@H]2O (stereo not given in full) | – | – | – | – | – | – | – | – | – | – | t1/2 [8]: 60 min
CC(=O)O[C@H]1C(=O)[C@@]2(C)[C@H]([C@H](OC(=O)c3ccccc3)[C@]3(O)C[C@H](OC(=O)[C@H](OC(=O)Cc4ccc(NC(=O)O[C@@H]5O[C@H](C(=O)O)[C@@H](O)[C@H](O)[C@H]5O)cc4)[C@@H](NC(=O)c4ccccc4)c4ccccc4)C(C)=C1C3(C)C)[C@]1(OC(C)=O)CO[C@@H]1C[C@@H]2O | – | – | – | – | – | – | – | – | – | – | IC50 (OVCAR-3 [9]): 0.23 nM; IC50 (OVCAR-3 [10]): 0.23 nM
CC(=O)O[C@H]1C(=O)[C@@]2(C)[C@H]([C@H](OC(=O)c3ccccc3)[C@]3(O)C[C@H](OC(=O)[C@H](OC(=O)OCc4ccc(NC(=O)[C@H](CCCCN)NC(=O)[C@H](CC(C)C)NC(=O)[C@H](N)C(C)C)cc4)[C@@H](NC(=O)c4ccccc4)c4ccccc4)C(C)=C1C3(C)C)[C@]1(OC(C)=O)CO[C@@H]1C[C@@H]2O.Cl | – | > 0.06 | 0.0092 | 0.011 | 0.027 | – | – | 0.0093 | 0.016 | 0.02 | –
CC(=O)O[C@H]1C(=O)[C@@]2(C)[C@H]([C@H](OC(=O)c3ccccc3)[C@]3(O)C[C@H](OC(=O)[C@@H](OC(=O)/C=C/C[C@@H]4C[C@H]5[C@@H]6CCc7cc(O)ccc7[C@H]6CC[C@]5(C)[C@H]4O)[C@@H](NC(=O)c4ccccc4)c4ccccc4)C(C)=C1C3(C)C)[C@]1(OC(C)=O)CO[C@@H]1C[C@@H]2O | 120 | – | – | – | – | 2200 | 1600 | – | – | – | IC50 (A2780): 8300 nM
CC(=O)O[C@H]1C(=O)[C@@]2(C)[C@H]([C@H](OC(=O)c3ccccc3)[C@]3(O)C[C@H](OC(=O)[C@H](OC(=O)N(C)CCN(C)C(=O)[C@H](CCCCN)NC(=O)[C@H](Cc4ccccc4)NC(=O)[C@@H](C)N)[C@@H](NC(=O)c4ccccc4)c4ccccc4)C(C)=C1C3(C)C)[C@]1(OC(C)=O)CO[C@@H]1C[C@@H]2O.Cl | 77 | 0.038 | 0.0066 | 0.01 | 0.011 | 4.5 | 4.9 | 0.0072 | 0.021 | 0.017 | –
CC(=O)O[C@H]1C(=O)[C@]2(C)[C@@H](OC(=O)C[C@H](O)C(=O)O)C[C@H]3OC[C@@]3(OC(C)=O)[C@H]2[C@H](OC(=O)c2ccccc2)[C@]2(O)C[C@H](OC(=O)[C@H](OC(=O)C[C@H](O)C(=O)O)[C@@H](NC(=O)c3ccccc3)c3ccccc3)C(C)=C1C2(C)C | – | – | 0.069 (≈ 0.0635 µM) | – | – | – | – | 0.059 (≈ 0.0543 µM) | – | – | solubility [11]: 500 µg/mL (≈ 460 µM)
CC(=O)O[C@H]1C(=O)[C@@]2(C)[C@H]([C@H](OC(=O)c3ccccc3)[C@]3(O)C[C@H](OC(=O)[C@H](OC(=O)C(C)(C)CCSSc4ccccn4)[C@@H](NC(=O)c4ccccc4)c4ccccc4)C(C)=C1C3(C)C)[C@]1(OC(C)=O)CO[C@@H]1C[C@@H]2O | – | – | – | – | – | – | – | – | – | – | t1/2 [8]: 4 min
CC(=O)O[C@H]1C(=O)[C@@]2(C)[C@H]([C@H](OC(=O)c3ccccc3)[C@]3(O)C[C@H](OC(=O)[C@H](OC(=O)NCCNC(=O)[C@H](CCCCN)NC(=O)[C@H](Cc4ccccc4)NC(=O)[C@@H](C)N)[C@@H](NC(=O)c4ccccc4)c4ccccc4)C(C)=C1C3(C)C)[C@]1(OC(C)=O)CO[C@@H]1C[C@@H]2O.Cl | 77 | 0.04 | 0.016 | 0.013 | 0.019 | 4.5 | 4.9 | 0.011 | 0.041 | 0.045 | –
CC(=O)O[C@H]1C(=O)[C@@]2(C)[C@H]([C@H](OC(=O)c3ccccc3)[C@]3(O)C[C@H](OC(=O)[C@H](OC(=O)N(C)CCN(C)C(=O)[C@H](CCCCN)NC(=O)[C@H](CC(C)C)NC(=O)[C@H](N)C(C)C)[C@@H](NC(=O)c4ccccc4)c4ccccc4)C(C)=C1C3(C)C)[C@]1(OC(C)=O)CO[C@@H]1C[C@@H]2O.Cl | 77 | 0.045 | 0.0069 | 0.011 | 0.026 | 4.5 | 4.9 | 0.0052 | 0.025 | 0.024 | –
CC(=O)O[C@H]1C(=O)[C@@]2(C)[C@H]([C@H](OC(=O)c3ccccc3)[C@]3(O)C[C@H](OC(=O)[C@H](OC(=O)CCC(=O)O[C@@H]4C[C@]5(C)[C@@H](O)CC[C@H]5[C@@H]5CCc6cc(O)ccc6[C@H]54)[C@@H](NC(=O)c4ccccc4)c4ccccc4)C(C)=C1C3(C)C)[C@]1(OC(C)=O)CO[C@@H]1C[C@@H]2O | 40 | – | – | – | – | 51 | 62 | – | – | – | IC50 (A2780): 680 nM
CC(=O)O[C@H]1C(=O)[C@@]2(C)[C@H]([C@H](OC(=O)c3ccccc3)[C@]3(O)C[C@H](OC(=O)[C@H](OC(=O)C[C@H](O)C(=O)[O-])[C@@H](NC(=O)c4ccccc4)c4ccccc4)C(C)=C1C3(C)C)[C@]1(OC(C)=O)CO[C@@H]1C[C@@H]2O.[Na+] | – | – | < 0.003 | – | – | – | – | < 0.003 | – | – | solubility [11]: 600 µg/mL
CC(=O)O[C@H]1C(=O)[C@@]2(C)[C@H]([C@H](OC(=O)c3ccccc3)[C@]3(O)C[C@H](OC(=O)[C@H](OC(=O)/C=C/C[C@@H]4C[C@H]5[C@@H]6CCc7cc(O)ccc7[C@H]6CC[C@]5(C)[C@H]4O)[C@@H](NC(=O)c4ccccc4)c4ccccc4)C(C)=C1C3(C)C)[C@]1(OC(C)=O)CO[C@@H]1C[C@@H]2O | 73 | – | – | – | – | 22 | 39 | – | – | – | IC50 (A2780): 180 nM
